# Reference: US20250082931A1, “Treating Gastric Cancer Using TTFields Combined with XELOX, FOLFOX or the Individual Constituents Thereof” (Novocure GmbH, priority 2019, published 2025)
# Assays:
# KATO III cells [1] = assay: Overall effect (cytotoxic effect x clonogenic effect); settings: low concentration
# Procedure: (§1) After 6-14 days the colonies were fixed, stained and counted to determine clonogenic effect. The overall effect was calculated by multiplying the cytotoxic effect and the clonogenic effect.
# Overall effect: Each colony number was multiply in the percent of cytotoxic effect of its dish and averages and standard deviations of each treatment were calculated in Excel software. […] Significant was determine by 2-way ANOVA followed Multiple comparison using GraphPed software.
# AGS cells [2] = assay: Apoptosis analysis by Annexin V / 7AAD staining; assay type: cell-based; settings: for AnnV+ 7AAD+ cell fraction / AnnV+ 7AAD− cell fraction / AnnV− 7AAD+ cell fraction / AnnV− 7AAD− cell fraction: 72 h
# Procedure: (§2) After 72 h of treatment the media and the cells were collected, and cytotoxicity was determined by cell counts. Cells (including cells from the media) were stained for Annexin V and 7AAD for apoptosis analysis. For the testing of the clonogenic effect, cells were seeded for colonies.
# (§3) Cells were seeded on inovitro dishes and petri dishes 24 h before starting the experiments. Media containing the indicated concentration of each chemotherapy component alone or FOLFOX and control media was added to the cells and the dishes were connected to TTFields (as in SOP-BI-009) or grown in 37° C., 5% CO2 for 72 h. Each treatment included 8 repeats (8 dishes). The media was replaced every 24 h. At the end of the experiment the cells were collected, and cytotoxicity was determined by cell counts, small number of cells were seeded for colonies and the cells (including cells from the media) were stained for Annexin V and 7AAD for apoptosis analysis.
# (§4) Apoptotic effect: Average of cell fraction of each marker staining (Annexin V and 7AAD) of at least 5 dishes from each treatment was calculated in Excel software. The averages from these repeats was calculated to averages and is presented in stacked bar graph using GraphPed software.
# KATO III cells [3] = assay: Cytotoxic effect by cell count after 72 h, with and without TTFields
# Procedure: (§5) During the treatment the media of all dishes was replaced every 24 h (“hours”).
# (§6) After 72 h of treatment the media and the cells were collected, and cytotoxicity was determined by cell counts.
# as §3
# (§7) A TTFields generator (Inovitro systems) was used to apply the treatment to the cells.
# (§8) Cytotoxic effect: Average and standard deviation of cell number of at least 5 dishes from each treatment was calculated in Excel software. The averages from these repeats was calculated to averages and standard error and is presented as percent from control (no drug treatment) in XY graph of points with error bars using GraphPed software. Significant was determine by 2-way ANOVA followed Multiple comparison using GraphPed software.
# KATO III cells [4] = assay: Clonogenic effect (colonies count); settings: for colonies count: 72 h;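 on all read-outs here: after treatment, KATO III cells were reseeded and grown 6–14 days, then colonies were fixed, stained and counted, expressed as percent of untreated (no drug) control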
# Procedure: (§9) After 72 h of treatment the media and the cells were collected, and cytotoxicity was determined by cell counts. […] For the testing of the clonogenic effect, cells were seeded for colonies.
# as §1
# (§10) Clonogenic effect: The colonies from each well were counted using ImageJ software. Average and standard deviation of colony number of at least 5 wells from each treatment were calculated in excel software. The averages from these repeats was calculated to averages and standard errors and is presented as percent from control (no drug treatment) in XY graph of points with error bars using GraphPed software. Significant was determine by 2-way ANOVA followed Multiple comparison using GraphPed software.
# KATO III cells [5] = assay: Apoptosis analysis by Annexin V / 7AAD staining; assay type: cell-based; settings: for AnnV+ 7AAD+ cell fraction / AnnV+ 7AAD− cell fraction / AnnV− 7AAD+ cell fraction / AnnV− 7AAD− cell fraction: 72 h
# Procedure: as §2, §3, §4
# AGS cells [6] = assay: Cytotoxic effect by cell count after 72 h, with and without TTFields
# Procedure: as §5, §6, §3, §7, §8
# AGS cells [7] = assay: Clonogenic effect (colonies count); assay type: cell-based; settings: for colonies count: 72 h
# Procedure: as §9, §1, §10
# [8] = 50 nM, + TTFields 150 kHz 1.0 V/cm
# [9] = 100 nM, + TTFields 150 kHz 1.0 V/cm
# [10] = 200 nM, + TTFields 150 kHz 1.0 V/cm
# [11] = 400 nM, + TTFields 150 kHz 1.0 V/cm
# [12] = 25 nuM, + TTFields 150 kHz 1.0 V/cm
# [13] = FOLFOX experiment, 50 nM, + TTFields 150 kHz 1.0 V/cm
# [14] = FOLFOX experiment, 50 nM, no TTFields
# [15] = 50 nM, + TTFields 150 kHz 1.6 V/cm
# [16] = 100 nM, + TTFields 150 kHz 1.6 V/cm
# [17] = 200 nM, + TTFields 150 kHz 1.6 V/cm
# [18] = 400 nM, + TTFields 150 kHz 1.6 V/cm
# [19] = FOLFOX experiment, 50 nM, + TTFields 150 kHz 1.6 V/cm
# [20] = 25 nM, + TTFields 150 kHz 1.0 V/cm
structure (smiles),measurement,setting,value
O=C1[O][Pt]2([NH][C@@H]3CCCC[C@H]3[NH]2)[O]C1=O [Oxaliplatin],additional clonogenic and overall effect over TTFields alone,KATO III cells [1],no additional effect
same,"elevation in percent of cells that undergo apoptosis, drug + TTFields compared to drug alone",AGS cells [2],higher
same,AnnV+ 7AAD+ cell fraction,"AGS cells [2]; 25 nM, no TTFields",4.00%
same,AnnV+ 7AAD− cell fraction,"AGS cells [2]; 25 nM, no TTFields",6.55%
same,AnnV− 7AAD+ cell fraction,"AGS cells [2]; 25 nM, no TTFields",1.35%
same,AnnV− 7AAD− cell fraction,"AGS cells [2]; 25 nM, no TTFields",88.10%
same,AnnV+ 7AAD+ cell fraction,AGS cells [2]; [8],11.65%
same,AnnV+ 7AAD− cell fraction,AGS cells [2]; [8],8.40%
same,AnnV− 7AAD+ cell fraction,AGS cells [2]; [8],3.10%
same,AnnV− 7AAD− cell fraction,AGS cells [2]; [8],76.90%
same,AnnV+ 7AAD+ cell fraction,"AGS cells [2]; 50 nM, no TTFields",4.83%
same,AnnV+ 7AAD− cell fraction,"AGS cells [2]; 50 nM, no TTFields",5.08%
same,AnnV− 7AAD+ cell fraction,"AGS cells [2]; 50 nM, no TTFields",2.08%
same,AnnV− 7AAD− cell fraction,"AGS cells [2]; 50 nM, no TTFields",88.00%
same,AnnV+ 7AAD+ cell fraction,AGS cells [2]; [9],12.78%
same,AnnV+ 7AAD− cell fraction,AGS cells [2]; [9],9.78%
same,AnnV− 7AAD+ cell fraction,AGS cells [2]; [9],2.23%
same,AnnV− 7AAD− cell fraction,AGS cells [2]; [9],75.20%
same,AnnV+ 7AAD+ cell fraction,"AGS cells [2]; 100 nM, no TTFields",7.00%
same,AnnV+ 7AAD− cell fraction,"AGS cells [2]; 100 nM, no TTFields",6.45%
same,AnnV− 7AAD+ cell fraction,"AGS cells [2]; 100 nM, no TTFields",1.63%
same,AnnV− 7AAD− cell fraction,"AGS cells [2]; 100 nM, no TTFields",84.93%
same,AnnV+ 7AAD+ cell fraction,AGS cells [2]; [10],14.54%
same,AnnV+ 7AAD− cell fraction,AGS cells [2]; [10],11.10%
same,AnnV− 7AAD+ cell fraction,AGS cells [2]; [10],3.78%
same,AnnV− 7AAD− cell fraction,AGS cells [2]; [10],70.58%
same,AnnV+ 7AAD+ cell fraction,AGS cells [2]; [11],17.83%
same,AnnV+ 7AAD− cell fraction,AGS cells [2]; [11],11.40%
same,AnnV− 7AAD+ cell fraction,AGS cells [2]; [11],4.50%
same,AnnV− 7AAD− cell fraction,AGS cells [2]; [11],66.23%
same,AnnV+ 7AAD+ cell fraction,"AGS cells [2]; 400 nM, no TTFields",10.87%
same,AnnV+ 7AAD− cell fraction,"AGS cells [2]; 400 nM, no TTFields",6.70%
same,AnnV− 7AAD+ cell fraction,"AGS cells [2]; 400 nM, no TTFields",1.83%
same,AnnV− 7AAD− cell fraction,"AGS cells [2]; 400 nM, no TTFields",80.60%
same,AnnV+ 7AAD+ cell fraction,AGS cells [2]; [12],9.00%
same,AnnV+ 7AAD− cell fraction,AGS cells [2]; [12],7.65%
same,AnnV− 7AAD+ cell fraction,AGS cells [2]; [12],0.75%
same,AnnV− 7AAD− cell fraction,AGS cells [2]; [12],82.60%
same,AnnV+ 7AAD+ cell fraction,"AGS cells [2]; 200 nuM, no TTFields",7.64%
same,AnnV+ 7AAD− cell fraction,"AGS cells [2]; 200 nuM, no TTFields",7.00%
same,AnnV− 7AAD+ cell fraction,"AGS cells [2]; 200 nuM, no TTFields",1.46%
same,AnnV− 7AAD− cell fraction,"AGS cells [2]; 200 nuM, no TTFields",83.92%
same,AnnV+ 7AAD+ cell fraction,AGS cells [2]; [13],10.3%
same,AnnV+ 7AAD− cell fraction,AGS cells [2]; [13],7.2%
same,AnnV− 7AAD+ cell fraction,AGS cells [2]; [13],4.4%
same,AnnV− 7AAD− cell fraction,AGS cells [2]; [13],78.2%
same,AnnV+ 7AAD+ cell fraction,AGS cells [2]; [14],4.6%
same,AnnV+ 7AAD− cell fraction,AGS cells [2]; [14],5.1%
same,AnnV− 7AAD+ cell fraction,AGS cells [2]; [14],0.2%
same,AnnV− 7AAD− cell fraction,AGS cells [2]; [14],90.1%
same,cell count,KATO III cells [3]; [15],48 % from control
same,cell count,"KATO III cells [3]; 50 nM, no TTFields",82 % from control
same,cell count,KATO III cells [3]; [16],46 % from control
same,cell count,"KATO III cells [3]; 100 nM, no TTFields",75 % from control
same,cell count,KATO III cells [3]; [17],30 % from control
same,cell count,"KATO III cells [3]; 200 nM, no TTFields",64 % from control
same,cell count,KATO III cells [3]; [18],24 % from control
same,cell count,"KATO III cells [3]; 400 nM, no TTFields",39 % from control
same,cell count,"KATO III cells [3]; 800 nM, + TTFields 150 kHz 1.6 V/cm",21 % from control
same,cell count,"KATO III cells [3]; 800 nM, no TTFields",25 % from control
same,cell count,KATO III cells [3]; [19],51 % from control
same,cell count,KATO III cells [3]; [14],84 % from control
same,colonies count,KATO III cells [4]; [15],46 % from control
same,colonies count,"KATO III cells [4]; 50 nM, no TTFields",71 % from control
same,colonies count,KATO III cells [4]; [16],54 % from control
same,colonies count,"KATO III cells [4]; 100 nM, no TTFields",74 % from control
same,colonies count,KATO III cells [4]; [17],42 % from control
same,colonies count,"KATO III cells [4]; 200 nM, no TTFields",70 % from control
same,colonies count,KATO III cells [4]; [18],17 % from control
same,colonies count,"KATO III cells [4]; 400 nM, no TTFields",23 % from control
same,"colonies number (clonogenic effect and overall effect), drug + TTFields compared to drug alone",KATO III cells [4]; Two-way ANOVA P<0.001,significant reduction in colonies number
same,"elevation in percent of cells that undergo apoptosis, drug + TTFields compared to drug alone",KATO III cells [5],higher
same,AnnV+ 7AAD+ cell fraction,KATO III cells [5]; [15],16.12%
same,AnnV+ 7AAD− cell fraction,KATO III cells [5]; [15],16.57%
same,AnnV− 7AAD+ cell fraction,KATO III cells [5]; [15],1.31%
same,AnnV− 7AAD− cell fraction,KATO III cells [5]; [15],66.01%
same,AnnV+ 7AAD+ cell fraction,"KATO III cells [5]; 50 nM, no TTFields",6.09%
same,AnnV+ 7AAD− cell fraction,"KATO III cells [5]; 50 nM, no TTFields",11.36%
same,AnnV− 7AAD+ cell fraction,"KATO III cells [5]; 50 nM, no TTFields",1.30%
same,AnnV− 7AAD− cell fraction,"KATO III cells [5]; 50 nM, no TTFields",81.25%
same,AnnV+ 7AAD+ cell fraction,KATO III cells [5]; [16],14.83%
same,AnnV+ 7AAD− cell fraction,KATO III cells [5]; [16],19.81%
same,AnnV− 7AAD+ cell fraction,KATO III cells [5]; [16],0.72%
same,AnnV− 7AAD− cell fraction,KATO III cells [5]; [16],64.63%
same,AnnV+ 7AAD+ cell fraction,"KATO III cells [5]; 100 nM, no TTFields",6.42%
same,AnnV+ 7AAD− cell fraction,"KATO III cells [5]; 100 nM, no TTFields",10.55%
same,AnnV− 7AAD+ cell fraction,"KATO III cells [5]; 100 nM, no TTFields",1.32%
same,AnnV− 7AAD− cell fraction,"KATO III cells [5]; 100 nM, no TTFields",81.71%
same,AnnV+ 7AAD+ cell fraction,KATO III cells [5]; [17],19.97%
same,AnnV+ 7AAD− cell fraction,KATO III cells [5]; [17],22.60%
same,AnnV− 7AAD+ cell fraction,KATO III cells [5]; [17],0.86%
same,AnnV− 7AAD− cell fraction,KATO III cells [5]; [17],56.57%
same,AnnV+ 7AAD+ cell fraction,"KATO III cells [5]; 200 nM, no TTFields",8.42%
same,AnnV+ 7AAD− cell fraction,"KATO III cells [5]; 200 nM, no TTFields",11.47%
same,AnnV− 7AAD+ cell fraction,"KATO III cells [5]; 200 nM, no TTFields",1.01%
same,AnnV− 7AAD− cell fraction,"KATO III cells [5]; 200 nM, no TTFields",79.10%
same,AnnV+ 7AAD+ cell fraction,KATO III cells [5]; [18],21.45%
same,AnnV+ 7AAD− cell fraction,KATO III cells [5]; [18],25.36%
same,AnnV− 7AAD+ cell fraction,KATO III cells [5]; [18],0.65%
same,AnnV− 7AAD− cell fraction,KATO III cells [5]; [18],52.54%
same,AnnV+ 7AAD+ cell fraction,"KATO III cells [5]; 400 nM, no TTFields",11.24%
same,AnnV+ 7AAD− cell fraction,"KATO III cells [5]; 400 nM, no TTFields",12.11%
same,AnnV− 7AAD+ cell fraction,"KATO III cells [5]; 400 nM, no TTFields",1.42%
same,AnnV− 7AAD− cell fraction,"KATO III cells [5]; 400 nM, no TTFields",75.23%
same,AnnV+ 7AAD+ cell fraction,KATO III cells [5]; [19],27.60%
same,AnnV+ 7AAD− cell fraction,KATO III cells [5]; [19],15.15%
same,AnnV− 7AAD+ cell fraction,KATO III cells [5]; [19],1.32%
same,AnnV− 7AAD− cell fraction,KATO III cells [5]; [19],55.94%
same,AnnV+ 7AAD+ cell fraction,KATO III cells [5]; [14],18.07%
same,AnnV+ 7AAD− cell fraction,KATO III cells [5]; [14],10.28%
same,AnnV− 7AAD+ cell fraction,KATO III cells [5]; [14],1.12%
same,AnnV− 7AAD− cell fraction,KATO III cells [5]; [14],70.54%
same,cell count,AGS cells [6]; [20],62 % from control
same,cell count,"AGS cells [6]; 25 nM, no TTFields",88 % from control
same,cell count,AGS cells [6]; [8],43 % from control
same,cell count,"AGS cells [6]; 50 nM, no TTFields",66 % from control
same,cell count,AGS cells [6]; [9],33 % from control
same,cell count,"AGS cells [6]; 100 nM, no TTFields",52 % from control
same,cell count,AGS cells [6]; [10],21 % from control
same,cell count,"AGS cells [6]; 200 nM, no TTFields",39 % from control
same,cell count,AGS cells [6]; [11],8 % from control
same,cell count,"AGS cells [6]; 400 nM, no TTFields",11 % from control
same,cell count,AGS cells [6]; [13],46 % from control
same,cell count,AGS cells [6]; [14],78 % from control
same,colonies count,AGS cells [7]; [20],67 % from control
same,colonies count,"AGS cells [7]; 25 nM, no TTFields",91 % from control
same,colonies count,AGS cells [7]; [8],70 % from control
same,colonies count,"AGS cells [7]; 50 nM, no TTFields",92 % from control
same,colonies count,AGS cells [7]; [9],61 % from control
same,colonies count,"AGS cells [7]; 100 nM, no TTFields",97 % from control
same,colonies count,AGS cells [7]; [10],43 % from control
same,colonies count,"AGS cells [7]; 200 nM, no TTFields",77 % from control
same,colonies count,AGS cells [7]; [11],18 % from control
same,colonies count,"AGS cells [7]; 400 nM, no TTFields",36 % from control
same,colonies count,AGS cells [7]; [13],64 % from control
same,colonies count,AGS cells [7]; [14],91 % from control
same,"colonies number (clonogenic effect and overall effect), drug + TTFields compared to drug alone",AGS cells [7]; Two-way ANOVA P<0.001,significant reduction in colonies number
